Data set [1] is described as follows: in vitro. The settings on record: African green monkey, CC50.
In data set [2] the test system is BDBV mucin-domain-deleted glycoprotein pseudotyped VSV. In words: microbe, parasite or virus in culture. Type of data set: cell-based, Bundibugyo ebolavirus. The settings on record: Vesicular stomatitis virus, Vero, read-out: EC50 BDBV.
For data set [3], the system named is EBOV mucin-domain-deleted glycoprotein pseudotyped VSV. Put plainly: microbe, parasite or virus in culture. Type of data set: cell-based, Zaire ebolavirus. The following applies: Zaire ebolavirus, Vero, read-out: EC50 EBOV.

Bounds are passed on as bounds.

By EC50 is commonly meant the concentration at which the effect is half-maximal.

In data set [1], `O=C(N1CCN(Cc2ccccc2)CC1)C12CC3CC(C1)CC(c1ccccc1)(C3)C2` [Example A29] displayed a CC50 of 5800 nM. Besides, the EC50 in data set [2] is 270 nM; in data set [3] it was 340 nM.

As for `O=C(CC12CC3CC(C1)CC(c1ccccc1)(C3)C2)N1CCN(Cc2ccccc2)CC1` [Example A30], the CC50 in data set [1] was 7500 nM. The values for the EC50 in data set [2] and in data set [3] were 220 nM and 340 nM, respectively.

In turn, `O=C(C1C2CC3CC(C2)CC1C3)N1CCN(Cc2ccccc2)CC1` (stereo not drawn) [Example A31] had a CC50 in data set [1] of more than 10000 nM. For the same compound, the EC50 in data set [2] and in data set [3] was more than 10000 nM throughout.

On to `O=C(CC12CC3CC(C1)CC(c1ccccc1)(C3)C2)NC1CCN(Cc2ccccc2)CC1` [Example A32], for which the CC50 in data set [1] was 1600 nM. For the same compound, the 50% effective concentration (EC50) in data set [2] worked out at 260 nM; in data set [3] it was 200 nM.

Turning to `O=C(CC12CC3CC(C1)CC(c1ccccc1)(C3)C2)N1CC2CC1CN2Cc1ccccc1` (stereo not drawn) [Example A33], the CC50 in data set [1] stood at 2200 nM. Moreover, the EC50 in data set [2] was 300 nM; in data set [3], 320 nM.

On to `O=C(N[C@@H]1CCCN(Cc2ccccc2)C1)C12CC3CC(C1)CC(c1ccccc1)(C3)C2` [Example A34], for which the CC50 in data set [1] stood at 1100 nM. Also, the figures for the EC50 in data set [2] and in data set [3] were 220 nM and 170 nM, respectively.

Regarding `CN1CC(NC(=O)C23CC4CC(C2)CC(c2ccccc2)(C4)C3)C1` [Example A35], the CC50 in data set [1] was more than 10000 nM. Besides, the EC50 in data set [2] stood at 220 nM; in data set [3], 280 nM.

In data set [1], `O=C(NC1CN(Cc2ccccc2)C1)C12CC3CC(C1)CC(c1ccccc1)(C3)C2` [Example A36] yielded a CC50 of 4300 nM. The results for the EC50 in data set [2] and in data set [3] were 300 nM and 510 nM, respectively.

`CN1CC[C@@H](NC(=O)C23CC4CC(C2)CC(c2ccccc2)(C4)C3)C1` [Example A37] showed a CC50 in data set [1] of more than 10000 nM. Besides, the results for the EC50 in data set [2] and in data set [3] were 240 nM and 230 nM, respectively.

In data set [1], `CN1CCC[C@@H](NC(=O)C23CC4CC(C2)CC(c2ccccc2)(C4)C3)C1` [Example A38] came in with a CC50 of more than 10000 nM. For the same compound, the EC50 in data set [2] was found to be 190 nM; in data set [3], 250 nM.

As for `CN1CC(NC(=O)CC23CC4CC(C2)CC(c2ccccc2)(C4)C3)C1` [Example A39], the CC50 in data set [1] is 19100 nM. Besides, the EC50 in data set [2] stood at 210 nM; in data set [3], 510 nM.

`CN1CC[C@@H](NC(=O)C23CC4CC(C)(C2)CC(c2ccccc2)(C4)C3)C1` (stereo partly drawn) [Example A41] yielded a CC50 in data set [1] of 13600 nM. In addition, the EC50 in data set [2] was determined as 180 nM; in data set [3], 103 nM.

Turning to `CN1CC(NC(=O)C23CC4CC(C)(C2)CC(c2ccccc2)(C4)C3)C1` (stereo not drawn) [Example A42], the CC50 in data set [1] is 13900 nM. The EC50 in data set [2] came to 190 nM; in data set [3] it was 121 nM.

As to `CC12CC3CC(C(=O)N[C@@H]4CN5CCC4CC5)(C1)CC(c1ccccc1)(C3)C2` (stereo partly drawn) [Example A44], the CC50 in data set [1] was 11000 nM. Moreover, the EC50 was 190 nM in data set [2] and 90 nM in data set [3].

Compound `CN(C)CCNC(=O)C12CC3CC(C)(C1)CC(c1ccccc1)(C3)C2` (stereo not drawn) [Example A46] came in with a CC50 in data set [1] of 13500 nM. The EC50 in data set [2] amounted to 210 nM; in data set [3], 180 nM.

`CC12CC3CC(C(=O)NCCN4CCOCC4)(C1)CC(c1ccccc1)(C3)C2` (stereo not drawn) [Example A48] displayed a CC50 in data set [1] of 54900 nM. The EC50 in data set [2] stood at 2000 nM; in data set [3], 1040 nM.

In turn, `O=C(N1CCC(NCc2ccccc2)CC1)C12CC3CC(C1)CC(c1ccccc1)(C3)C2` [Example A49, N-Benzyl-1-[(3-phenyladamantan-1-yl)carbonyl]piperidin-4-amine] gave a CC50 in data set [1] of 10000 nM. For the same compound, the EC50 in data set [2] was determined as 290 nM; in data set [3], 210 nM.

`O=C(CC12CC3CC(CC(C3)C1)C2)N1CCC2(CCN(Cc3ccccc3)C2)C1` (stereo not drawn) [Example A50, 2-(Adamantan-1-yl)-1-{7-benzyl-2,7-diazaspiro[4.4]nonan-2-yl}ethan-1-one] showed a CC50 in data set [1] of 54900 nM. For the same compound, the EC50 in data set [2] is 3300 nM; in data set [3], 2900 nM.

`O=C(CC12CC3CC(CC(C3)C1)C2)NC1CCN(Cc2ccccc2)CC1` [Example A51]: in data set [1], the CC50 was 10000 nM. Further, the figures for the EC50 in data set [2] and in data set [3] were more than 10000 nM and 9000 nM, respectively.

In the case of `O=C(CC12CC3CC(CC(C3)C1)C2)N[C@@H]1CCN(Cc2ccccc2)C1` [Example A52], in data set [1], the CC50 is more than 10000 nM. Besides, the EC50 amounted to 4000 nM in data set [2] and 4900 nM in data set [3].

In the case of `O=C(CC12CC3CC(CC(C3)C1)C2)NCC(=O)NC1CCN(Cc2ccccc2)CC1` [Example A54], the CC50 in data set [1] was more than 10000 nM. Besides, the EC50 in data set [2] was 10000 nM; in data set [3] it was 4000 nM.

With `COC(=O)c1ccc(COc2ccccc2CN2CCC(NC(=O)CNC(=O)CC34CC5CC(CC(C5)C3)C4)CC2)cc1` [Example A55], in data set [1], the CC50 is more than 10000 nM. In addition, the EC50 in data set [2] was 2600 nM; in data set [3], 2900 nM.

Consider `O=C(CC12CC3CC(CC(C3)C1)C2)NCC(=O)N[C@@H]1CCN(Cc2ccccc2)C1` [Example A56], for which the CC50 in data set [1] is more than 10000 nM. For the same compound, the EC50 in data set [2] stood at 10000 nM; in data set [3], 3100 nM.

For the compound `COC(=O)c1ccc(COc2ccccc2CN2CC3CC2CN3C(=O)CNC(=O)CC23CC4CC(CC(C4)C2)C3)cc1` (stereo not drawn) [Example A58], the CC50 in data set [1] was more than 10000 nM. Further, the results for the EC50 in data set [2] and in data set [3] were 8000 nM and 650 nM, respectively.

Compound `NC1CCN(C(=O)C23CC4CC(C2)CC(c2ccccc2)(C4)C3)CC1` [Example A61] came in with a CC50 in data set [1] of more than 10000 nM. Moreover, the figures for the EC50 in data set [2] and in data set [3] were 80 nM and 140 nM, respectively.

`O=C(N1CC2CCNC2C1)C12CC3CC(C1)CC(c1ccccc1)(C3)C2` (stereo not drawn) [Example A62]: the CC50 in data set [1] came out at 30000 nM. The EC50 in data set [2] is 110 nM; in data set [3], 160 nM.

For `O=C(N1CCC2(CCNC2)C1)C12CC3CC(C1)CC(c1ccccc1)(C3)C2` (stereo not drawn) [Example A64], in data set [1], the CC50 was more than 10000 nM. Moreover, the EC50 in data set [2] turned out to be 180 nM; in data set [3], 710 nM.

Turning to `O=C(N1CC2CC1CN2)C12CC3CC(C1)CC(c1ccccc1)(C3)C2` (stereo not drawn) [Example A65], in data set [1], the CC50 was more than 10000 nM. Also, the EC50 in data set [2] and in data set [3] was 90 nM throughout.

For `O=C(N1CCCNCC1)C12CC3CC(C1)CC(c1ccccc1)(C3)C2` [Example A66], the CC50 in data set [1] was more than 10000 nM. Moreover, the EC50 in data set [2] was 100 nM; in data set [3], 160 nM.

Turning to `COc1ccc(C23CC4CC(CC(C(=O)NC5CCNCC5)(C4)C2)C3)cc1` [Example A67], the CC50 in data set [1] is more than 10000 nM. Further, the EC50 was determined as 410 nM in data set [2] and 390 nM in data set [3].

On to `O=C(NC1CCNCC1)C12CC3CC(C1)CC(c1ccc(Cl)cc1)(C3)C2` [Example A69], for which the CC50 in data set [1] was found to be 22400 nM. The EC50 in data set [2] was determined as 240 nM; in data set [3], 220 nM.

In data set [1], `O=C(CC12CC3CC(C1)CC(c1ccccc1)(C3)C2)NC1CCNCC1` [Example A70] returned a CC50 of more than 50000 nM. Also, the concentration giving a half-maximal response (EC50) in data set [2] worked out at 190 nM; in data set [3] it was 490 nM.

As to `CC12CC3CC(C(=O)NC4CNC4)(C1)CC(c1ccccc1)(C3)C2` (stereo not drawn) [Example A72], in data set [1], the CC50 came out at 17400 nM. Moreover, the EC50 was 290 nM in data set [2] and 280 nM in data set [3].

`CC12CC3(C)CC(C(=O)NC4CCNCC4)(C1)CC(c1ccccc1)(C2)C3` [Example A73] registered a CC50 in data set [1] of 13000 nM. For the same compound, the EC50 in data set [2] came to 370 nM; in data set [3] it was 320 nM.

Regarding `O=C(NC1CCNCC1)C12CC3CC(C1)CC(c1ccc(O)cc1)(C3)C2` [Example A74], in data set [1], the CC50 came out at 14000 nM. The values for the EC50 in data set [2] and in data set [3] were more than 1000 nM and 1720 nM, respectively.

For `O=C(NC1CCNCC1)C12CC3CC(C1)CC(c1ccc(F)cc1)(C3)C2` [Example A75], the CC50 in data set [1] turned out to be 17700 nM. The EC50 in data set [2] and in data set [3] was 300 nM each time.

With `CC12CC3CC(C(=O)N[C@H]4CC[C@@H](N)CC4)(C1)CC(c1ccccc1)(C3)C2` (stereo partly drawn) [Example A77], the CC50 in data set [1] turned out to be 8700 nM. The EC50 amounted to 220 nM in data set [2] and 120 nM in data set [3].

Consider `CC12CC3CC(C(=O)NCCN)(C1)CC(c1ccccc1)(C3)C2` (stereo not drawn) [Example A79], for which the CC50 in data set [1] was 4200 nM. Besides, the values for the EC50 in data set [2] and in data set [3] were 290 nM and 260 nM, respectively.

In data set [1], `C[C@H]1CN(C(=O)C23CC4CC(C)(C2)CC(c2ccccc2)(C4)C3)CCN1` (stereo partly drawn) [Example A82] had a CC50 of 4500 nM. Besides, the figures for the EC50 in data set [2] and in data set [3] were 160 nM and 130 nM, respectively.

Regarding `C[C@H]1CNCCN1C(=O)C12CC3CC(C)(C1)CC(c1ccccc1)(C3)C2` (stereo partly drawn) [Example A83], the CC50 in data set [1] stood at 12900 nM. The EC50 stood at 180 nM in data set [2] and 100 nM in data set [3].

`N[C@H]1CC[C@H](NC(=O)C2C3CC4CC2CC(c2ccccc2)(C4)C3)CC1` (stereo partly drawn) [Example A84] yielded a CC50 in data set [1] of 9000 nM. Besides, the EC50 in data set [2] came to 110 nM; in data set [3], 146 nM.

In data set [1], `C[C@@H]1CN(C(=O)C23CC4CC(C)(C2)CC(c2ccccc2)(C4)C3)C[C@H](C)N1` (stereo partly drawn) [Example A86] yielded a CC50 of 3900 nM. Also, the EC50 amounted to 180 nM in data set [2] and 155 nM in data set [3].

For `N[C@H]1CC[C@H](NC(=O)C23CC4CC2CC(c2ccccc2)(C4)C3)CC1` (stereo partly drawn) [Example A87], in data set [1], the CC50 amounted to 1400 nM. Further, the EC50 in data set [2] was 190 nM; in data set [3], 140 nM.

The compound `O=C(NC1CCNCC1)C12CC3CC1CC(c1ccccc1)(C3)C2` (stereo not drawn) [Example A88] came in with a CC50 in data set [1] of 12500 nM. For the same compound, the EC50 is 500 nM in data set [2] and 360 nM in data set [3].

Take `CC12CC3CC(C(=O)NC4CC5(CNC5)C4)(C1)CC(c1ccccc1)(C3)C2` (stereo not drawn) [Example A89]: in data set [1], the CC50 is 40700 nM. The EC50 was 880 nM in data set [2] and 250 nM in data set [3].

With `CC12CC3CC(C(=O)NC4CC5(CC(N)C5)C4)(C1)CC(c1ccccc1)(C3)C2` (stereo not drawn) [Example A90], in data set [1], the CC50 worked out at 59000 nM. Further, the EC50 in data set [2] amounted to 200 nM; in data set [3], 50 nM.

The values above are taken from patent US12240857B2 (priority 2017, dated 2025).
